Bridge positions count the residues as written; N and C are the ends. Peptide text beside a SMILES is read from it.

Results on two molecules are retold here after ChEMBL document CHEMBL5120921, “Newly Discovered Peptides from the Coral Heliofungia actiniformis Show Structural and Functional Diversity” (J Nat Prod, 2022).

Holding throughout (assay type): toxicity
Data set [1] concerns 1BR.3.GN. Nature of the data set: Cytotoxicity against human 1BR.3.GN cells assessed as cell proliferation at 1250 nM measured after 4 days by xCELLigence based analysis. Particulars: 96 h, 1.25 µM, time 4 day.
For data set [2], the system named is 1BR.3.GN. Put plainly: (§1) Cytotoxicity against human 1BR.3.GN cells assessed as cell proliferation at 50 nM measured after 4 days by xCELLigence based analysis relative to control. Particulars: 1br.3.gn, 96 h, 0.05 µM, time 4 day.
Data set [3] in a line: as §1. Particulars: 1BR.3.GN cells, time 4 day, read-out: Activity.

Take “H-FNPVGVAFKGNNGKYLSRIHRSGIDYTEFAKDNTD-OH”: the Activity entry in data set [1] and in data set [2] was “Non-Toxic” in each case.

`CC[C@H](C)[C@H](NC(=O)[C@@H]1CSSC[C@@H]2NC(=O)[C@H](Cc3ccccc3)NC(=O)[C@H](CO)NC(=O)[C@H](CCCNC(=N)N)NC(=O)[C@@H]3CSSC[C@H](NC(=O)[C@H](CCCCN)NC(=O)[C@H](CCC(N)=O)NC(=O)[C@H](CC(=O)O)NC(=O)[C@@H]4CCCN4C2=O)C(=O)N[C@@H](CC(C)C)C(=O)N[C@@H](CCCCN)C(=O)N[C@@H](CC(=O)O)C(=O)N[C@@H](CSSC[C@H](N)C(=O)N[C@@H](C)C(=O)N2CCC[C@H]2C(=O)N[C@@H](CCC(=O)O)C(=O)N3)C(=O)NCC(=O)N1)C(=O)O` (H-CAPECRSFCPDQKCLKDCGCI-OH; disulfide 1-18, 5-14, 9-20): in data set [3], the viability at 96 h, 0.05 µM was > 15%.
